# Data as given in ChEMBL document CHEMBL4406836, “The design of a cell-selective fowlicidin-1-derived peptide with both antimicrobial and anti-inflammatory activities” (Eur J Med Chem, 2019).
# Active and inactive are the calls of the source. No cut-off for these calls is given here.
# Tests used:
# Pseudomonas aeruginosa [1] = experiment: Antibacterial activity against multidrug-resistant Pseudomonas aeruginosa CCARM 2095 assessed as reduction in bacterial growth incubated for 18 hrs by spectrophotometry based microtiter broth dilution method; type: functional; conditions: CCARM 2095, 18 h
# Staphylococcus aureus [2] = experiment: Induction of cytoplasmic membrane depolarization in Staphylococcus aureus at 2 times of MIC within 4 mins by SYTOX green-based assay; type: functional, organism-based
# Pseudomonas aeruginosa [3] = experiment: (§1) Fractional inhibitory concentration index, sum of ratio of MIC of compound in presence of […] uM ciprofloxacin to MIC of chloramphenicol and ratio of MIC of compound in presence of ciprofloxacin to MIC of compound for antibacterial activity against multidrug-resistant Pseudomonas aeruginosa CCARM 2095; type: functional
# Pseudomonas aeruginosa [4] = experiment: Fractional inhibitory concentration, ratio of MIC of compound in presence of […] uM chloramphenicol to MIC of chloramphenicol for antibacterial activity against multidrug-resistant Pseudomonas aeruginosa CCARM 2095; type: functional
# Staphylococcus aureus [5] = experiment: Fractional inhibitory concentration, ratio of MIC of compound in presence of […] uM ciprofloxacin to MIC of ciprofloxacin for antibacterial activity against methicillin-resistant Staphylococcus aureus CCARM 3089; type: functional
# Staphylococcus aureus [6] = experiment: Potentiation of chloramphenicol-induced antibacterial activity against methicillin-resistant Staphylococcus aureus CCARM 3089 assessed as reduction in chloramphenicol MIC at 1/16th MIC incubated for 72 hrs by spectrophotometry; type: functional
# Staphylococcus aureus [7] = experiment: Antibacterial activity against methicillin-resistant Staphylococcus aureus CCARM 3089 assessed as reduction in bacterial growth incubated for 18 hrs by spectrophotometry based microtiter broth dilution method; type: functional; conditions: CCARM 3089, 18 h
# Escherichia coli = experiment: Induction of membrane integrity disruption in Escherichia coli at 2 times of MIC by propidium iodide staining based flow cytometry relative to control (reference value: 2.97 %); type: functional
# Staphylococcus aureus [8] = experiment: (§2) Fractional inhibitory concentration index, sum of ratio of MIC of compound in presence of 128 uM chloramphenicol to MIC of chloramphenicol and ratio of MIC of compound in presence of chloramphenicol to MIC of chloramphenicol for antibacterial activity against methicillin-resistant Staphylococcus aureus CCARM 3089; type: functional
# Pseudomonas aeruginosa [9] = experiment: Fractional inhibitory concentration, ratio of MIC of compound in presence of chloramphenicol to MIC of compound for antibacterial activity against multidrug-resistant Pseudomonas aeruginosa CCARM 2095; type: functional
# Staphylococcus aureus [10] = experiment: Fractional inhibitory concentration, ratio of MIC of compound in presence of ciprofloxacin to MIC of ciprofloxacin for antibacterial activity against methicillin-resistant Staphylococcus aureus CCARM 3089; type: functional
# Staphylococcus aureus [11] = experiment: Potentiation of oxacillin-induced antibacterial activity against methicillin-resistant Staphylococcus aureus CCARM 3089 assessed as reduction in oxacillin MIC at 1/16th MIC incubated for 72 hrs by spectrophotometry; type: functional
# Staphylococcus aureus [12] = experiment: Antibacterial activity against methicillin-resistant Staphylococcus aureus CCARM 3095 assessed as reduction in bacterial growth incubated for 18 hrs by spectrophotometry based microtiter broth dilution method; type: functional; conditions: CCARM 3095, 18 h
# Pseudomonas aeruginosa [13] = type: functional; conditions: CCARM 2095, 72 h
# Staphylococcus aureus [14] = experiment: Antibacterial activity against methicillin-resistant Staphylococcus aureus CCARM 3089 assessed as reduction in bacterial growth incubated for 72 hrs in presence of 128 uM chloramphenicol by spectrophotometry; type: functional; conditions: CCARM 3089, 72 h
# Pseudomonas aeruginosa [15] = type: functional; conditions: CCARM 2095, 72 h; remark: listed apart in the source
# Staphylococcus aureus [16] = type: functional; conditions: CCARM 3089, 72 h
# Pseudomonas aeruginosa [17] = experiment: Fractional inhibitory concentration, ratio of MIC of compound in presence of oxacillin to MIC of compound for antibacterial activity against multidrug-resistant Pseudomonas aeruginosa CCARM 2095; type: functional
# Pseudomonas aeruginosa [18] = experiment: Potentiation of ciprofloxacin-induced antibacterial activity against mutidrug-resistant Pseudomonas aeruginosa CCARM 2095 assessed as reduction in ciprofloxacin MIC at 1/16th MIC incubated for 72 hrs by spectrophotometry; type: functional
# Pseudomonas aeruginosa [19] = experiment: as §1, with “chloramphenicol” for “ciprofloxacin”; type: functional
# Staphylococcus aureus [20] = experiment: Antibacterial activity against methicillin-resistant Staphylococcus aureus CCARM 3089 assessed as reduction in bacterial growth incubated for 72 hrs by spectrophotometry; type: functional; conditions: CCARM 3089, 72 h
# Pseudomonas aeruginosa [21] = experiment: Antibacterial activity against multidrug-resistant Pseudomonas aeruginosa CCARM 2109 assessed as reduction in bacterial growth incubated for 18 hrs by spectrophotometry based microtiter broth dilution method; type: functional; conditions: CCARM 2109, 18 h
# Pseudomonas aeruginosa [22] = experiment: Fractional inhibitory concentration, ratio of MIC of compound in presence of ciprofloxacin to MIC of compound for antibacterial activity against multidrug-resistant Pseudomonas aeruginosa CCARM 2095; type: functional
# Staphylococcus aureus [23] = experiment: Induction of cytoplasmic membrane depolarization in Staphylococcus aureus at 2 times of MIC for a period of 600 sec by DiSC3-5-fluorescence based assay; type: functional, organism-based
# Staphylococcus aureus [24] = experiment: Fractional inhibitory concentration, ratio of MIC of compound in presence of […] uM oxacillin to MIC of oxacillin for antibacterial activity against methicillin-resistant Staphylococcus aureus CCARM 3089; type: functional
# Pseudomonas aeruginosa [25] = experiment: Fractional inhibitory concentration index, sum of ratio of MIC of compound in presence of […] and ratio of MIC of compound in presence of oxacillin to MIC of compound for antibacterial activity against multidrug-resistant Pseudomonas aeruginosa CCARM 2095; type: functional
# Staphylococcus aureus [26] = experiment: as §2, with “128” left out, “ciprofloxacin” for “chloramphenicol”; type: functional
# Enterococcus faecium = experiment: Antibacterial activity against vancomycin-resistant Enterococcus faecium ATCC 51559 assessed as reduction in bacterial growth incubated for 18 hrs by spectrophotometry based microtiter broth dilution method; type: functional; conditions: ATCC 51559, 18 h
# Pseudomonas aeruginosa [27] = experiment: Potentiation of chloramphenicol-induced antibacterial activity against mutidrug-resistant Pseudomonas aeruginosa CCARM 2095 assessed as reduction in chloramphenicol MIC at 1/16th MIC incubated for 72 hrs by spectrophotometry; type: functional
# Staphylococcus aureus [28] = type: functional; conditions: CCARM 3089, 72 h; remark: listed apart in the source
# Staphylococcus aureus [29] = experiment: Potentiation of ciprofloxacin-induced antibacterial activity against methicillin-resistant Staphylococcus aureus CCARM 3089 assessed as reduction in ciprofloxacin MIC at 1/16th MIC incubated for 72 hrs by spectrophotometry; type: functional
# Pseudomonas aeruginosa [30] = experiment: Fractional inhibitory concentration, ratio of MIC of compound in presence of […] uM oxacillin to MIC of oxacillin for antibacterial activity against multidrug-resistant Pseudomonas aeruginosa CCARM 2095; type: functional
# Pseudomonas aeruginosa [31] = experiment: Fractional inhibitory concentration, ratio of MIC of compound in presence of […] uM ciprofloxacin to MIC of ciprofloxacin for antibacterial activity against multidrug-resistant Pseudomonas aeruginosa CCARM 2095; type: functional
# Staphylococcus aureus [32] = experiment: Antibacterial activity against methicillin-resistant Staphylococcus aureus CCARM 3090 assessed as reduction in bacterial growth incubated for 18 hrs by spectrophotometry based microtiter broth dilution method; type: functional; conditions: CCARM 3090, 18 h
# Staphylococcus aureus [33] = experiment: Fractional inhibitory concentration, ratio of MIC of compound in presence of 128 uM chloramphenicol to MIC of chloramphenicol for antibacterial activity against methicillin-resistant Staphylococcus aureus CCARM 3089; type: functional
# Staphylococcus aureus [34] = experiment: Fractional inhibitory concentration, ratio of MIC of compound in presence of chloramphenicol to MIC of chloramphenicol for antibacterial activity against methicillin-resistant Staphylococcus aureus CCARM 3089; type: functional
Compound,MIC (Pseudomonas aeruginosa [1]),Activity (Staphylococcus aureus [2]),fractional inhibitory concentration index (FICI) (Pseudomonas aeruginosa [3]),FIC (Pseudomonas aeruginosa [4]),FIC (Staphylococcus aureus [5]),fold change (FC) (Staphylococcus aureus [6]),MIC (Staphylococcus aureus [7]),Activity (Escherichia coli),fractional inhibitory concentration index (FICI) (Staphylococcus aureus [8]),FIC (Pseudomonas aeruginosa [9]),FIC (Staphylococcus aureus [10]),fold change (FC) (Staphylococcus aureus [11]),MIC (Staphylococcus aureus [12]),MIC (Pseudomonas aeruginosa [13]),MIC (Staphylococcus aureus [14]),MIC (Pseudomonas aeruginosa [15]),MIC (Staphylococcus aureus [16]),FIC (Pseudomonas aeruginosa [17]),fold change (FC) (Pseudomonas aeruginosa [18]),fractional inhibitory concentration index (FICI) (Pseudomonas aeruginosa [19]),also measured
CC[C@H](C)[C@H](NC(=O)[C@H](CCCCN)NC(=O)[C@H](CCC(=O)O)NC(=O)[C@H](CCCCN)NC(=O)[C@H](CO)NC(=O)[C@H](CCCCN)NC(=O)[C@H](CCCNC(=N)N)NC(=O)[C@H](Cc1ccccc1)NC(=O)[C@H](Cc1ccccc1)NC(=O)[C@H](CC(=O)O)NC(=O)CNC(=O)[C@H](CC(C)C)NC(=O)[C@@H](N)CC(C)C)C(=O)NCC(=O)N[C@@H](CCCCN)C(=O)N[C@@H](CCC(=O)O)C(=O)N[C@@H](Cc1ccccc1)C(=O)N[C@@H](CCCCN)C(=O)N[C@@H](CCCNC(=N)N)C(=O)N[C@H](C(=O)N[C@H](C(=O)N[C@@H](CCC(N)=O)C(=O)N[C@@H](CCCNC(=N)N)C(=O)N[C@H](C(=O)N[C@@H](CCCCN)C(=O)N[C@@H](CC(=O)O)C(=O)N[C@@H](Cc1ccccc1)C(=O)N[C@@H](CC(C)C)C(=O)N[C@@H](CCCNC(=N)N)C(=O)N[C@@H](CC(N)=O)C(=O)N[C@@H](CC(C)C)C(=O)N[C@H](C(=O)N1CCC[C@H]1C(=O)N[C@@H](CCCNC(=N)N)C(=O)N[C@H](C(=O)N[C@@H](CCC(=O)O)C(=O)N[C@@H](CO)C(=O)O)[C@@H](C)O)C(C)C)[C@@H](C)CC)C(C)C)[C@@H](C)CC [CATHELICIDIN],4 µM,Active,0.75,0.25,0.25,2 - 16,8 µM,55.5%,1,0.5,1,2 - 16,16 µM,256 µM,64 µM,128 µM,256 µM,1,2 - 4,0.75,MIC (Staphylococcus aureus [20]): 8 µM; MIC (Pseudomonas aeruginosa [21]): 8 µM; FIC (Pseudomonas aeruginosa [22]): 0.5; Activity (Staphylococcus aureus [23]): Active; FIC (Staphylococcus aureus [24]): 0.5; fractional inhibitory concentration index (FICI) (Pseudomonas aeruginosa [25]): 2; fractional inhibitory concentration index (FICI) (Staphylococcus aureus [26]): 1.25; MIC (Enterococcus faecium): 8 µM; fold change (FC) (Pseudomonas aeruginosa [27]): 2 - 4; MIC (Staphylococcus aureus [28]): 256 µM; fold change (FC) (Staphylococcus aureus [29]): 2 - 16; FIC (Pseudomonas aeruginosa [30]): 1; FIC (Pseudomonas aeruginosa [31]): 0.25; MIC (Staphylococcus aureus [32]): 4 µM; FIC (Staphylococcus aureus [33]): 0.5; FIC (Staphylococcus aureus [34]): 0.5
H-LVIRWVRAGYKLYRAIKKK-NH2,2 µM,Active,0.625,0.031,0.25,4 - 32,4 µM,68.98%,0.25,0.25,0.125,4 - 32,2 µM,32 µM,16 µM,64 µM,256 µM,0.25,4 - 16,0.281,MIC (Staphylococcus aureus [20]): 4 µM; MIC (Pseudomonas aeruginosa [21]): 4 µM; FIC (Pseudomonas aeruginosa [22]): 0.5; Activity (Staphylococcus aureus [23]): Active; FIC (Staphylococcus aureus [24]): 0.25; fractional inhibitory concentration index (FICI) (Pseudomonas aeruginosa [25]): 0.5; fractional inhibitory concentration index (FICI) (Staphylococcus aureus [26]): 0.375; MIC (Enterococcus faecium): 4 µM; fold change (FC) (Pseudomonas aeruginosa [27]): 4 - 16; MIC (Staphylococcus aureus [28]): 128 µM; fold change (FC) (Staphylococcus aureus [29]): 4 - 32; FIC (Pseudomonas aeruginosa [30]): 0.25; FIC (Pseudomonas aeruginosa [31]): 0.125; MIC (Staphylococcus aureus [32]): 2 µM; FIC (Staphylococcus aureus [33]): 0.125; FIC (Staphylococcus aureus [34]): 0.125
